Measurements reported in patent publication US12281081B2, “Herbicidal compounds” (SYNGENTA CROP PROTECTION AG, priority 2019, dated 2025).

Columns and labels:
barley crop plants = assay: Crop phytotoxicity comparison, post-emergence; conditions: for damage to the barley crop compared to prior art compound C1: summary of Table B3
wheat crop plants = assay: Crop phytotoxicity comparison, post-emergence; conditions: for damage to the wheat crop compared to prior art compound C1: summary of Table B3
[1] = tested on: Alopecurus myosuroides (ALOMY); assay: Pre-emergence herbicidal glasshouse test; assay type: in vivo; conditions: 250 g/Ha, evaluated after 13 days
Text: (§1) Compounds are applied at 250 g/h. […] NT=not tested.

[2] = tested on: Echinochloa crus-galli (ECHCG); assay: Pre-emergence herbicidal glasshouse test; assay type: in vivo; conditions: 250 g/Ha, evaluated after 13 days
Text: as §1

Setaria faberi (SETFA) [3] = assay: Pre-emergence herbicidal glasshouse test; assay type: in vivo; conditions: 250 g/Ha, evaluated after 13 days
Text: as §1

Avena fatua (AVEFA) [4] = assay: Pre-emergence herbicidal glasshouse test; assay type: in vivo; conditions: 250 g/Ha, evaluated after 13 days
Text: as §1

Lolium perenne (LOLPE) [5] = assay: Pre-emergence herbicidal glasshouse test; assay type: in vivo; conditions: 250 g/Ha, evaluated after 13 days
Text: as §1

[6] = tested on: Alopecurus myosuroides (ALOMY); assay: Post-emergence herbicidal glasshouse test; assay type: in vivo; conditions: 250 g/Ha, evaluated after 13 days
Text: as §1

[7] = tested on: Echinochloa crus-galli (ECHCG); assay: Post-emergence herbicidal glasshouse test; assay type: in vivo; conditions: 250 g/Ha, evaluated after 13 days
Text: as §1

Setaria faberi (SETFA) [8] = assay: Post-emergence herbicidal glasshouse test; assay type: in vivo; conditions: 250 g/Ha, evaluated after 13 days
Text: as §1

Avena fatua (AVEFA) [9] = assay: Post-emergence herbicidal glasshouse test; assay type: in vivo; conditions: 250 g/Ha, evaluated after 13 days
Text: as §1

Lolium perenne (LOLPE) [10] = assay: Post-emergence herbicidal glasshouse test; assay type: in vivo; conditions: 250 g/Ha, evaluated after 13 days
Text: as §1

[11] = rate 60 g/ha + safener cloquintocet-mexyl (CQC) at 50 g/ha

SMILES	% phytotoxicity observed, Barley (barley crop plants; rate 30 g/ha) [%]	% phytotoxicity observed, Barley (barley crop plants; rate 60 g/ha) [%]	% phytotoxicity observed, Wheat (wheat crop plants; rate 30 g/ha) [%]	% phytotoxicity observed, Wheat (wheat crop plants; rate 60 g/ha) [%]	% phytotoxicity observed, Wheat (wheat crop plants; [11]) [%]	percentage damage caused to the plant, ALOMY [1]	percentage damage caused to the plant, ECHCG [2]	percentage damage caused to the plant, SETFA (Setaria faberi (SETFA) [3])	percentage damage caused to the plant, AVEFA (Avena fatua (AVEFA) [4])	percentage damage caused to the plant, LOLPE (Lolium perenne (LOLPE) [5])	damage to the barley crop compared to prior art compound C1 (barley crop plants)	damage to the wheat crop compared to prior art compound C1 (wheat crop plants)	percentage damage caused to the plant, ALOMY [6]	percentage damage caused to the plant, ECHCG [7]	percentage damage caused to the plant, SETFA (Setaria faberi (SETFA) [8])	percentage damage caused to the plant, AVEFA (Avena fatua (AVEFA) [9])	percentage damage caused to the plant, LOLPE (Lolium perenne (LOLPE) [10])
CC#Cc1cc(C)c(C2C(=O)CC3(CCOCC3)CC2=O)c(C)c1 [Compound C1, reference compound]	80	90	40	70	60	–	–	–	–	–	–	–	–	–	–	–	–
CC#Cc1cc(C)c(C2C(=O)CC3(CCN(S(=O)(=O)NC)CC3)CC2=O)c(C)c1 [Compound A3, 9-(2,6-dimethyl-4-prop-1-ynyl-phenyl)-N-methyl-8,10-dioxo-3-azaspiro[5.5]undecane-3-sulfonamide]	0	0	0	0	0	5 (5=80-100%)	5 (5=80-100%)	5 (5=80-100%)	5 (5=80-100%)	5 (5=80-100%)	significantly less damaging	significantly less damaging	5 (5=80-100%)	5 (5=80-100%)	5 (5=80-100%)	5 (5=80-100%)	5 (5=80-100%)
CC#Cc1cc(C)c(C2C(=O)CC3(CCN(S(C)(=N)=O)CC3)CC2=O)c(C)c1 (stereo not shown) [Compound A1, 9-(2,6-dimethyl-4-prop-1-ynyl-phenyl)-3-(methylsulfonimidoyl)-3-azaspiro[5.5]undecane-8,10-dione]	0	0	0	0	0	5 (5=80-100%)	5 (5=80-100%)	5 (5=80-100%)	5 (5=80-100%)	5 (5=80-100%)	significantly less damaging	significantly less damaging	5 (5=80-100%)	5 (5=80-100%)	5 (5=80-100%)	5 (5=80-100%)	5 (5=80-100%)
CC#Cc1cc(C)c(C2C(=O)CC3(CCN(S(=O)(=O)N(C)C)CC3)CC2=O)c(C)c1 [Compound A4]	–	–	–	–	–	5 (5=80-100%)	5 (5=80-100%)	5 (5=80-100%)	5 (5=80-100%)	5 (5=80-100%)	–	–	5 (5=80-100%)	5 (5=80-100%)	5 (5=80-100%)	5 (5=80-100%)	5 (5=80-100%)
